Reference: patent US9629863B2, “CDK5 inhibitors and therapeutic uses thereof” (The Hong Kong University of Science and Technology, priority 2009, dated 2017)

Legend:
[1] = target: Cdk5/p25 (Homo sapiens, UniProt Q00535); test: FRET-based Z'-LYTE Cdk5 kinase assay, Cdk5/p25; assay type: biochemical; details: for inhibition at 30 µM: compound 30 μM, 30 ng/ml Cdk5/p25, FIG. 3; for IC50: Cdk5/p25, Table 1; for inhibition at 200 µM: Cdk5/p25, at 200 μM; for mode of inhibition on Cdk5/p25 complex: 0.5, 1, 2 and 4 μM, increasing ATP, FIG. 11; for inhibitory effect on Cdk5/p25: FIG. 8-10, in words; for inhibition at 80 µM: Cdk5/p25, at 80 μM
Procedure: (§1) Cdk5 kinase assay was performed as described in the instruction manual (Invitrogen, cat. no. PV3673). This assay employs a FRET-based, coupled-enzyme format and is based on the differential sensitivity of phosphorylated and non-phosphorylated peptides to proteolytic cleavage. The assay uses a synthetic peptide substrate (the Z′-LYTE™ peptide substrate) that is labeled with a donor fluorophore (coumarin) and an acceptor fluorophore (fluorescein) to make up a FRET pair. In the primary reaction, Cdk5 transfers the γ-phosphate of ATP to a serine/threonine residue on the substrate, while the presence of a kinase inhibitor in the primary reaction suppresses phosphorylation. […] Cleavage disrupts FRET between the donor and acceptor fluorophores on the non-phosphorylated substrate, while uncleaved phosphorylated substrate maintains FRET. The effectiveness of the compounds on inhibiting the Cdk5 activity is then measured by calculating the emission ratio.
(§2) The plate was then incubated for one hour at room temperature. Development solution was then added in the dark for another hour. […] To calculate the activity of cdk5/p25 and Cdk5/p35, Z′-LYTE phosphopeptide was used as a 100% phosphorylation control while nonphosphorylated Z′-LYTE peptide is used as a 0% phosphorylation control to establish the maximal and minimal emission ratio values which enable to calculate the percentage of kinase phosphorylation. To determine the inhibitory effect on cdk5 activity, fractions and compounds to be tested were included in the kinase reaction. Zero inhibition was determined by using DMSO (solvent) instead of the compounds in the reaction. […] Assays were done in quadruplicates and data was averaged from at least 4 independent experiments. Similar experimental protocols were performed for Cdk1/cyclin B and Cdk2/cyclin A kinase activity study. Activity of each kinase complex was evaluated by titration, and the resultant value of EC30 was used in the inhibitory study. Since activity of kinase complexes varies with different batches of preparation, EC30 will be determined in each new batch of kinases. […] Kinetic studies of compounds were performed by Cdk5/p25 kinase assays with various concentrations of ATP and tested compounds. The kinetic parameters were determined by a nonlinear least-squares program using GraphPad Prism 5 software.
(§3) Using the FRET-based Cdk5 kinase assay method described above, the compounds of the present invention were examined for their inhibitory effects on Cdk5 kinase activity. The amount of Cdk5/25 and Cdk5/p35 used for screening Cdk5 inhibitors is EC30 of the kinase complex and the EC30 was determined with a titration study of kinase complex. The effectiveness of the compounds on inhibiting Cdk5 activity was then measured by comparing the percent phosphorylation of peptide substrates by Cdk5 kinase in the presence of test compounds and percent phosphorylation of peptide substrates by Cdk5 without test compounds.
Seven natural compounds isolated from Rhodiola rosea (F199) were selected for IC50 and maximal inhibition determination. Various concentrations of the F199 compounds were incubated with Cdk5/p25. The effectiveness of the compounds on inhibiting Cdk5 activity was then calculated by comparing the percent phosphorylation of peptide substrates by Cdk5/p25 in the presence of test compounds and percent phosphorylation of peptide substrates by Cdk5/p25 without test compounds.

[2] = target: Cdk5 (Homo sapiens, UniProt Q00535); details: reported elsewhere, controls; cited from earlier work
[3] = target: Cdk5/p35 (Homo sapiens, UniProt Q00535); test: FRET-based Z'-LYTE Cdk5 kinase assay, Cdk5/p35; assay type: biochemical; details: for inhibition at 30 µM: compound 30 μM, 30 ng/ml Cdk5/p35, FIG. 3; for inhibitory effect on Cdk5/p35: FIG. 8-10, in words
Procedure: as §1, §2, §3

[4] = system: rat cortical neurons; test: Aβ assay (MTT) in cortical neurons; assay type: cell-based; details: about 30 and 50 μM, Aβ25-35 10 μM, vs DMSO control
Procedure: Embryonic rat cortical neurons (7 DIV) were pre-treated with various concentrations of compounds (3-50 μM) and then co-incubated with Aβ25-35 (10 μM). After overnight incubation, the MTT assay was performed. Cell survival was calculated as a percentage compared to the vehicle control (DMSO). Assays were conducted in duplicates and data were compared with student-t test. *=P<0.05.
Cortical neurons at 7 DIV in culture isolated from embryonic day 18 rats were used as cell models in the assay. Toxicity caused by Aβ25-35 peptide in these cells was evaluated by MTT detection after […]. The Aβ assay was performed to investigate the ability of the invention to protect cortical neurons from cell death induced by exogenous Aβ25-35 peptide addition. Assays were done in duplicates and data was averaged from at least 3 independent experiments.
Exogenous addition of Aβ initiates cell death of neuronal cultures via apoptosis. The MTT assay, a well-known cell death assay, was performed to study the ability of the compounds of the present invention to prevent Aβ-induced excitotoxicity in primary cortical neuronal cells. Embryonic rat cortical neurons (7 DIV) were pre-treated with various concentrations of the compounds (3-50 μM) and then co-incubated with Aβ25-35 (10 μM). After overnight incubation, the MTT assay was performed. Cell survival was calculated as a percentage compared to the vehicle control (DMSO). Assays were conducted in duplicates and data were analyzed with student-t test. *=P<0.05. The results of exemplary compounds, F199-C6, F199-C34 and F199-C22 are presented in FIG. 5, FIG. 6 and FIG. 7, respectively.

[5] = system: formalin-induced pain; test: Animal model of pain (formalin paw-licking); assay type: in vivo, mice
Procedure: Adult ICR mice (6-8 week-old) habituated in the experimental room for 3 days before the testing. Testing was conducted from 9 am to 3 pm. Mice were randomly grouped and weighed. Mice were pretreated with a single dose of F199-C16 (10-100 mg/kg, intraperitoneal injection) and then injected with 10 μl of 2.5% formalin in the subplantar of the right hind paw. The licking time (in seconds) was recorded during 0-10 minutes (early phase) and in 11-40 minutes (late phase) after formalin injection. The whole process was monitored and recorded by a digital monochrome video camera. Data were expressed as the mean±SEM. (*p<0.05; ANOVA, with Student-Newman Keuls test).
The effect of F199-C16 was examined in an animal model of pain. The pain was induced by injecting formalin into the paw of the mouse.

[6] = target: Cdk1/cyclin B (Homo sapiens, UniProt P06493); test: Z'-LYTE kinase assay, Cdk1/cyclin B; assay type: biochemical; details: FIG. 8-10, in words
Procedure: (§4) Cdk5 kinase assay was performed by adding Z′-LYTE™ peptide substrate and ATP together with Cdk5/p25 or Cdk5/p35 kinase solution in a 384-well black polystyrene plate (Corning 3676). The plate was then incubated for one hour at room temperature. Development solution was then added in the dark for another hour. Finally, stop solution was added and the coumarin and fluorescein emission signals were measured on a fluorescence plate reader (Tecan, infinite F500) (excitation: 400 nm, emission 445 and […], respectively). To calculate the activity of cdk5/p25 and Cdk5/p35, Z′-LYTE phosphopeptide was used as a 100% phosphorylation control while nonphosphorylated Z′-LYTE peptide is used as a 0% phosphorylation control to establish the maximal and minimal emission ratio values which enable to calculate the percentage of kinase phosphorylation. To determine the inhibitory effect on cdk5 activity, fractions and compounds to be tested were included in the kinase reaction. Zero inhibition was determined by using DMSO (solvent) instead of the compounds in the reaction. […]. Assays were done in quadruplicates and data was averaged from at least 4 independent experiments. Similar experimental protocols were performed for Cdk1/cyclin B and Cdk2/cyclin A kinase activity study. Activity of each kinase complex was evaluated by titration, and the resultant value of EC30 was used in the inhibitory study. Since activity of kinase complexes varies with different batches of preparation, EC30 will be determined in each new batch of kinases. […] Kinetic studies of compounds were performed by Cdk5/p25 kinase assays with various concentrations of ATP and tested compounds. The kinetic parameters were determined by a nonlinear least-squares program using GraphPad Prism 5 software.

[7] = target: Cdk2/cyclin A (Homo sapiens, UniProt P24941); test: Z'-LYTE kinase assay, Cdk2/cyclin A; assay type: biochemical; details: FIG. 8-10, in words
Procedure: as §4

Sequence of Cdk5/p35 (Q00535 whole entry, species assumed): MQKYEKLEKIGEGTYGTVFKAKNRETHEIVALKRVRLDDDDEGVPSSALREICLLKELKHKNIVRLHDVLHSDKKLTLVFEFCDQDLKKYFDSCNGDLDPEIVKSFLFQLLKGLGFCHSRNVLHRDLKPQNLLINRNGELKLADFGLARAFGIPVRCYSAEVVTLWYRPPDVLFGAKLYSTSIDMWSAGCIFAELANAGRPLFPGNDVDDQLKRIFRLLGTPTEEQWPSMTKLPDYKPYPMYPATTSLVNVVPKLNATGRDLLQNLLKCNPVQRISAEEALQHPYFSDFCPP
Sequence of Cdk5/p35 (Q15078 whole entry partner, species assumed): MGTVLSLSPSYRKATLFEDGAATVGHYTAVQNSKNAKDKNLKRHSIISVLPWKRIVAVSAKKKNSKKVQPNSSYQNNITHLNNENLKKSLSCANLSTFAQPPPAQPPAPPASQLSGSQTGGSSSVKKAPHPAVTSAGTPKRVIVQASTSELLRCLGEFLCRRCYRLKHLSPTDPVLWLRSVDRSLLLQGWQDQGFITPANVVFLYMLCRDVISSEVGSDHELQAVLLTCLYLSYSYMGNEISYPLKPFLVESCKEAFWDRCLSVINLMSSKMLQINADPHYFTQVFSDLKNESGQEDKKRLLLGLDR
Sequence of Cdk5/p25 (Q00535 whole entry, species assumed): as the sequence (Q00535 whole entry, species assumed) above
Sequence of Cdk5/p25 (Q15078 99-307 partner limits assumed, species assumed): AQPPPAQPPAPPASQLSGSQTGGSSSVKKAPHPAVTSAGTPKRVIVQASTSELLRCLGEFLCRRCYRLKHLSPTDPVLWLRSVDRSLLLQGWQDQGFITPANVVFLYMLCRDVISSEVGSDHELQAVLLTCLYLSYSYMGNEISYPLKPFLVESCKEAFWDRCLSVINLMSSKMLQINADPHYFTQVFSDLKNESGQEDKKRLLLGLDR
Sequence of Cdk1/cyclin B (P06493 whole entry, species assumed): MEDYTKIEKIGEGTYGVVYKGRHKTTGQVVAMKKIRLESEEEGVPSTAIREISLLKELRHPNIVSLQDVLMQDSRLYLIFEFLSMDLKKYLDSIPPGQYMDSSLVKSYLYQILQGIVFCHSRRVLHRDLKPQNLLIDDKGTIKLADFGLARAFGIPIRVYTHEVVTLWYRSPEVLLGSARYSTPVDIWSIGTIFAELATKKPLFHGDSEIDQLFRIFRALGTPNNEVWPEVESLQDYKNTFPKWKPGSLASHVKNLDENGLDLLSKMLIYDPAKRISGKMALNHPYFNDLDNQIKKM
Sequence of Cdk1/cyclin B (P14635 whole entry partner, species assumed): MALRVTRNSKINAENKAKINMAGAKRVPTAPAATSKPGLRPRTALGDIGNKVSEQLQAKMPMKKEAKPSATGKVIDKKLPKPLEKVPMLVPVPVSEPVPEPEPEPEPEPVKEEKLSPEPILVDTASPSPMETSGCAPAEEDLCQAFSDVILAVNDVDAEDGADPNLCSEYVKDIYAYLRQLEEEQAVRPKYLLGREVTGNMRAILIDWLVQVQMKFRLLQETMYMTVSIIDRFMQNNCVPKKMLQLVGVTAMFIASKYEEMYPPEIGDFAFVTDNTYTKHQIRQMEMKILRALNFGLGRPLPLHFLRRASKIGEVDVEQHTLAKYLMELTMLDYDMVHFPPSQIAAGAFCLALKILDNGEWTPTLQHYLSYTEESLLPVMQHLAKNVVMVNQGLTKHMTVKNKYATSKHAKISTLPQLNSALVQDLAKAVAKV
Sequence of Cdk5 (Q00535 whole entry, species assumed): as the sequence (Q00535 whole entry, species assumed) above
Sequence of Cdk5 (Q15078 whole entry partner, species assumed): as the sequence (Q15078 whole entry partner, species assumed) above

Row | inhibition at 30 µM [1] | inhibition at 30 µM [3] | IC50 [1] | inhibition at 200 µM ([1]; read-out: Maximum inhibition) | inhibitory effect on Cdk5/p25 [1] | inhibitory effect on Cdk1/cyclin B [6] | inhibitory effect on Cdk2/cyclin A [7] | inhibitory effect on Cdk5/p35 [3] | SMILES | neuronal cell survival against Aβ toxicity [4] | also measured
1 | 50 to 75% | 50 to 75% | 3.24 µM | 87.5% | milder inhibition | potently | minimal | milder inhibition | CC1OC(Oc2c(O)cc(O)c3c(=O)c(O)c(-c4ccc(O)cc4)oc23)C(O)C(O)C1O (stereo not shown) [Compound F199-C16, litvinolin] |  | licking time, early phase (0-10 min) ([5]; 100 mg/kg i.p.): significantly reduced the licking time; licking time, late phase (11-40 min) ([5]; 100 mg/kg i.p.): significantly reduced the licking time; licking time of right hind paw ([5]; 10-100 mg/kg i.p., single dose, formalin): reduced the licking time of right hind paw in a dose-dependent manner; mode of inhibition on Cdk5/p25 complex [1]: mixed inhibition
2 | < 25% | < 25% | 20.1 µM |  |  |  |  |  | O=C(OCC1OC(OC/C=C/c2ccccc2)C(O)C(O)C1O)c1cc(O)c(O)c(O)c1 (stereo not shown) [Compound F199-C22, 6-O-galloyl rosin] | significantly promoted neuronal cell survival | inhibition at 80 µM ([1]; read-out: Maximum inhibition): 46.5%
3 | 50 to 75% | 50 to 75% | 1.21 µM |  | inhibited similarly | inhibited similarly | minimal | inhibited similarly | COc1ccc(-c2oc3c(O)c(O)cc(O)c3c(=O)c2O)cc1 [Compound F199-C23, 4′-methoxyherbacetin] |  | mode of inhibition on Cdk5/p25 complex [1]: mixed inhibition; inhibition at 20 µM ([1]; Cdk5/p25, at 20 μM, read-out: Maximum inhibition): 45%

More lines, now with the values behind:

Row | SMILES | inhibition at 30 µM [1] | inhibition at 30 µM [3] | IC50 [1] | inhibition at 200 µM ([1]; read-out: Maximum inhibition) | inhibitory effect on Cdk5/p25 [1] | inhibitory effect on Cdk1/cyclin B [6] | inhibitory effect on Cdk2/cyclin A [7] | inhibitory effect on Cdk5/p35 [3] | neuronal cell survival against Aβ toxicity [4] | also measured
4 | CC[C@H](CC[C@@H](C)[C@H]1CC[C@H]2[C@@H]3CC=C4C[C@@H](O[C@@H]5O[C@H](CO)[C@@H](O)[C@H](O)[C@H]5O)CC[C@]4(C)[C@H]3CC[C@]12C)C(C)C [Compound F199-C1, daucosterol, reference compound] | < 25% | < 25% |  |  |  |  |  |  |  | reported inhibition of Cdk5 activity [2]: moderately inhibit Cdk5 activity
5 | O=c1c(O)c(-c2ccc(O)cc2)oc2cc(O)cc(O)c12 [Compound F199-C2, kaempferol] |  |  |  |  |  |  |  |  |  | reported inhibition of Cdk5 activity [2]: moderately inhibit Cdk5 activity
6 | O=C(O)c1cc(O)c(O)c(O)c1 [Compound F199-C4, gallic acid] | 25 to 50% | 25 to 50% | 40.6 µM | 64.2% |  |  |  |  |  | 
7 | O=c1c(O)c(-c2ccc(O)cc2)oc2c(OC3OCC(O)C(O)C3O)c(O)cc(O)c12 (stereo not shown) [Compound F199-C6, rhodalin] | 25 to 50% | 25 to 50% | 34.4 µM | 56.6% |  |  |  |  | significantly promoted neuronal cell survival | 
8 | O=C(OCC1OC(Oc2ccc(O)cc2)C(O)C(O)C1O)c1cc(O)c(O)c(O)c1 (stereo not shown) [Compound F199-C34, 6-O-galloyl arbutin] | 50 to 75% | 50 to 75% | 5.63 µM |  | potent inhibitory effect | less effect | less effect | less effect | significantly promoted neuronal cell survival | inhibition at 80 µM ([1]; read-out: Maximum inhibition): 70%
9 | O=C(O[C@@H]1Cc2c(O)cc(O)cc2O[C@@H]1c1cc(O)c(O)c(O)c1)c1cc(O)c(O)c(O)c1 [Compound F199-C35, epigallocatechin-3-gallate] |  |  | 14.7 µM |  |  |  |  |  |  | 
